Measurements published in PubChem BioAssay AID2305 (GlaxoSmithKline (GSK), 2010).
pIC50: −log10 of the molar value. Values joined by “and” are separate entries in the source; they are usually repeats but may differ in a detail not shown here. Identical values can stand only once.

Test system: P. falciparum 3D7 growth, pLDH absorbance
Assay: blood-stage malaria parasite growth potency – strain 3D7, dose response (AID 2305)

For `Brc1ccc(Nc2nc3ccccc3nc2Nc2ccc(Br)cc2)cc1`, the pIC50 was 6.11.
Molecule `C[C@H](Cc1ccc(OCCCCCCOc2ccccc2)cc1)NC[C@H](O)c1cccc(Cl)c1` has a pIC50 of 7.15.
Molecule `Nc1ncc(OC2CCCCC2)c(N)n1` has a pIC50 of 5.97.
Molecule `CC(C)(C)c1ccc(NC(=O)c2cccc(CN3CCCN(Cc4ccc(F)cc4)CC3)c2)cc1` has a pIC50 of 6.00.
In the case of `COc1ccc2nc(C)cc(NN=Cc3cc(C)ccc3O)c2c1`, the pIC50 was 6.85.
In the case of `COc1cccc(-c2csc(C(=O)NCC3CCN(Cc4ccc(C(C)(C)C)cc4)C3)c2)c1` (stereo unspecified), the pIC50 was 5.93.
Molecule `Cc1cccc2[nH]c(-c3cccc(-c4cccc(CNCc5cccc(N)c5)c4)c3)nc12` has a pIC50 of 6.27.
With `CCCCCC(C)N=C(Nc1ccc(C#N)cc1O)Nc1ccccc1Br` (stereo unspecified) the pIC50 was 6.12.
In the case of `CCN(CC)CCN(Cc1ccc(-c2ccc(C(F)(F)F)cc2)nc1)C(=O)Cn1c(SCc2ccc(F)cc2)nc(=O)c2sccc21`, the pIC50 was 6.08.
`CC(=O)N[C@H](C(=O)Nc1cccc(-c2ccc(-c3nc4c(C)cccc4[nH]3)s2)c1)C(C)C` showed a pIC50 of 6.12.
Work on `COc1ccc(CCN2CC[C@H](Nc3nc(-c4ccc(F)c(F)c4)nc4ccccc34)C2)cc1S(N)(=O)=O` yielded a pIC50 of 6.10.
Work on `CC1CCN(CC[C@H]2CCCN2S(=O)(=O)c2cccc(NC(=O)Nc3ccc(C(F)(F)F)cc3)c2)CC1` yielded a pIC50 of 6.14.
In the case of `O=C(NC1CCC(N2CCC3(CC2)C(=O)NCN3c2ccccc2)CC1)c1cc2ccccc2[nH]1` (stereo unspecified), the pIC50 was 6.17.
Work on `O=C1C(=Cc2cc(Cc3ccccc3)ccc2O)SC(=S)N1Cc1ccccc1` yielded a pIC50 of 6.03.
In the case of `N#Cc1ccc(NC(=NC2Cc3ccccc3C2)Nc2cccc(Cl)c2Cl)c(O)c1`, the pIC50 was 6.08.
`COc1ccc(CCNCCCCCCNCCc2ccc(Cl)c3ccccc23)cc1OC` showed a pIC50 of 6.24.
For `Cc1cc(CN2CC[C@H](NC(=O)c3ccc(Cl)c(Cl)c3)C2)ccc1OCCN1CCNCC1`, the pIC50 was 6.03.
In the case of `CSc1ccc(CN2CCC(CNC(=O)c3cc(-c4ccccc4F)cs3)C2)cc1` (stereo unspecified), the pIC50 was 5.94.
For `O=c1cc(-c2cccc(C(F)(F)F)c2)nc(Nc2ccc(Cl)c(Cl)c2)[nH]1`, the pIC50 was 6.12.
`CCc1cc(NCc2ccncc2)nc(Nc2ccc(F)cc2)n1` showed a pIC50 of 5.88.
For `N#Cc1c(Cl)cccc1Oc1ccc(S(=O)(=O)NC2CCC(CN3CCC(c4c[nH]c5ccccc45)CC3)CC2)cc1` (stereo unspecified), the pIC50 was 6.15 and 5.97.
With `CC(C)(CNC(=O)[C@@H]1CCCCN1)c1nc(-c2ccc(Cl)c(O)c2)c(-c2ccncc2)[nH]1` the pIC50 was 6.08.
`COc1ccc(OC)c(CNCC(O)c2cc(C(F)(F)F)cc(C(F)(F)F)c2)c1` (stereo unspecified) was tested, and the pIC50 was 6.36.
Work on `CCc1nc2c(N)nc(N)nc2nc1-c1ccc(OC)cc1` yielded a pIC50 of 5.92.
For `FC(F)(F)c1cccc(NC(=S)NN=Cc2ccccn2)c1`, the pIC50 was 6.46.
`COc1ccc2ncc(F)c(CCN3C[C@H](CNCc4ccccc4)[C@H](O)C3)c2n1` gave a pIC50 of 6.04.
Molecule `O=C(Nc1cccc(-c2cccc(CN3CCCC3)c2)c1)c1cccc(Cl)c1` has a pIC50 of 5.93.
With `COc1ccc(NC(=O)CSc2nc(-c3ccccc3Cl)ns2)cc1` the pIC50 was 5.98.
Work on `COc1ccc2nc(/N=C(/N)NC(=O)Nc3ccccc3)nc(C)c2c1` yielded a pIC50 of 5.89.
Molecule `Cc1ccc(C(C)C)c(Oc2cnc(NC(CO)c3ccccc3)nc2N)c1` (stereo unspecified) has a pIC50 of 6.02.
`CCCCN1CCN(c2cc(NS(=O)(=O)c3cccc(C(=O)Nc4ccc(C(F)(F)F)cc4)c3)ccc2OC)CC1` was tested, and the pIC50 was 6.16.
With `Cc1cc(NC(=O)c2coc3cc(F)c(N4C[C@@H](C)N(C)[C@@H](C)C4)cc23)cnc1-c1ccc(C#N)cc1` the pIC50 was 6.15.
Work on `CCCNCc1ccc(-c2ccc(CN(C(=O)c3nn(-c4ccccc4)nc3C)C3CCOCC3)cc2)nc1` yielded a pIC50 of 6.85.
Molecule `O=c1cc(NC[C@@H]2CCC[C@@H]2NCc2ccc(Cl)c(Cl)c2)[nH]c2ccccc12` has a pIC50 of 6.22.
Work on `COc1cc(-c2nc(-c3ccccc3)c(-c3ccc(C(=O)c4ccc(F)cc4)cc3)[nH]2)cc(OC)c1O` yielded a pIC50 of 6.18.
`O=C(C=Cc1ccc(-c2ccccc2)cc1)N1CCC(CCN2CCC(c3c[nH]c4ccccc34)CC2)CC1` was tested, and the pIC50 was 5.95.
In the case of `CN1CCN(c2cccc(Nc3nccc(NCC(O)c4ccccc4)n3)c2)CC1` (stereo unspecified), the pIC50 was 6.14.
In the case of `Nc1c(Cl)cc(C(O)CNCCCCCCOCCc2ccc(O)cc2)cc1Cl` (stereo unspecified), the pIC50 was 6.14.
`CCCCc1cc(Cc2cnc(N)nc2N)cc(OC)c1OC` showed a pIC50 of 5.98.
With `COc1c(C2CCN(CCCCNC(=O)c3ccc(NC(=O)c4ccc(C#N)cc4)cc3)CC2)ccc2c1CCCC2` the pIC50 was 6.54.
In the case of `COc1ccc(-c2cccc(NC(=O)c3ccc(C#N)cc3)c2)cc1CN(C)CCN(C)C`, the pIC50 was 7.15.
For `c1ccc2sc(Sc3ncnc4sccc34)nc2c1`, the pIC50 was 6.14.
`O=C(Nc1ccc(Oc2ccc(OC(F)(F)F)cc2)cc1)c1ccco1` showed a pIC50 of 5.95.
`CCOC(=O)C1=C(C)NC2=C(C(=O)C(C(=O)OC)C(C)C2)C1c1cc(Br)c(OCC)c(OC)c1` (stereo unspecified) showed a pIC50 of 6.15.
`OC[C@H]1CCCN1CC#Cc1cc2c(Nc3ccc(OCc4cccc(F)c4)c(Cl)c3)ncnc2s1` was tested, and the pIC50 was 5.92.
`Cc1nn(-c2ccccc2)nc1C(=O)NC1CCN(CCNC(=O)c2ccc(Cl)c(Cl)c2)CC1` gave a pIC50 of 6.06.
`CC(CCCC(=O)Nc1ccc(CC(C)NCCc2cccc(Cl)c2)cc1)NCCc1cccc(Cl)c1` (stereo unspecified) showed a pIC50 of 6.21.
With `Cn1c(N)c(C(=O)CSc2nnc(-c3cccs3)n2Cc2ccccc2)c(=O)n(C)c1=O` the pIC50 was 6.10.
In the case of `CC(C)(C)OC(=O)NCc1ccc(Nc2nnc(-c3cccc(C(=O)NCCC(c4ccccc4)c4ccccc4)c3)o2)cc1`, the pIC50 was 6.24.
With `CCCc1cc(OC)c(C[C@H]2c3cc(O)c(Cl)cc3CCN2C)cc1OC` the pIC50 was 6.24.
`CC(=O)Nc1cccc(-c2cnc(N)c3cc(-c4ccc5c(c4)OCO5)ccc23)c1` was tested, and the pIC50 was 6.31.
`O=C(Cn1c(CCc2cccc(F)c2F)cc(=O)c2ccccc21)N(Cc1ccc(-c2ccc(C(F)(F)F)cc2)cc1)C1CCN(CCO)CC1` gave a pIC50 of 5.88.
`C[C@@H]1CC[C@H](NC(=O)[C@H](CC2CCCC2)NC(=O)N2CCNCC2)C(=O)CN1S(=O)(=O)c1ccccn1` gave a pIC50 of 6.05.
For `Cn1nc(-c2ccc(CN[C@@H]3CCc4ccc(O)cc43)cc2)c2cnc(NC3CCCC3)nc21`, the pIC50 was 5.95.
In the case of `O=C(NC1CCN(CCCOc2ccnc3cc(Cl)ccc23)C1)c1ccc(Br)cc1` (stereo unspecified), the pIC50 was 5.99.
Molecule `O=c1cc(NC[C@H]2CCC[C@@H]2NCc2cc(Br)cc(Br)c2)[nH]c2ccccc12` has a pIC50 of 6.17.
For `CC(C)c1ccc(NC(=O)NCC2CCCN(CCCCCNC(=O)/C=C/c3ccc(Cl)c(Cl)c3)C2)cc1` (stereo unspecified), the pIC50 was 6.09.
`OCCC1CCN(Cc2ccc(-c3ccc(-c4nc5ccccc5[nH]4)cc3)cc2)CC1` showed a pIC50 of 6.11.
Molecule `Cc1nc(Nc2ccc(C)c(Cl)c2)c2c(C)noc2n1` has a pIC50 of 6.05.
For `Oc1ccccc1CCNCC1CCc2ccccc2C1` (stereo unspecified), the pIC50 was 6.16.
`CCN(CCNc1nc(NCCc2cnc[nH]2)nc(N(CCC#N)Cc2ccccc2)n1)c1cccc(C)c1` gave a pIC50 of 6.15.
Molecule `CCc1cc2c3c(N)nc(N)nc3ccc2n1CC` has a pIC50 of 8.00.
`O=C(Nc1ccc(OC2CCN(Cc3ccc(F)cc3)C2)cc1)c1cccs1` (stereo unspecified) was tested, and the pIC50 was 6.19.
Molecule `COc1ccc(CN2CCC(CNCc3cccc(-c4ccccc4)c3)CC2)cc1` has a pIC50 of 6.62.
Molecule `O=C(Nc1ccc(OC2CCN(Cc3ccc(F)cc3)C2)c(Cl)c1)c1ccc(F)cc1` (stereo unspecified) has a pIC50 of 6.31.
Molecule `Oc1cc2c(cc1CN1CCN(Cc3cccs3)CC1)CCC2` has a pIC50 of 6.08.
In the case of `O=C(CSc1nc(-c2ccccc2Cl)ns1)Nc1cccc(F)c1`, the pIC50 was 5.95.
`Cc1cc(NN=Cc2ccccc2)c2cc(C(F)(F)F)ccc2n1` showed a pIC50 of 6.82.
Molecule `Cc1ccc(NC(=O)c2ccc(N3CCN(c4ccncc4)CC3)cn2)cc1F` has a pIC50 of 5.80.
`CN(C)c1ccc(CN2CCC(NC(=O)c3ccc(-c4ccccc4Cl)s3)CC2)cc1` gave a pIC50 of 6.05.
`Cc1noc(C)c1-c1ccc2c(Nc3ccc(C(F)(F)F)cc3)c(C(N)=O)cnc2c1` was tested, and the pIC50 was 6.49.
